Assay results from ChEMBL document CHEMBL1255230, “Chemical inhibitor of nonapoptotic cell death with therapeutic potential for ischemic brain injury” (Nat Chem Biol, 2005).
Active and inactive are the calls of the source. The calls are words filed in the database; no cut-off is given here.

Legend:
[1] = Inhibition of death receptor signaling mediated necroptotic cell death in human Jurkat cells deficient in FADD and expressing FKBP12-based dimerization domain assessed as cell viability after 48 hrs by FACS in presence of AP1510
[2] = Inhibition of death receptor signaling mediated apoptosis in human Jurkat cell assessed as inhibition of mitochondrial dysfunction after 24 hrs by in presence of FasL, CHX and zVAD.fmk; format: cell-based
[3] = test system: U-937; test: Inhibition of oxidative stress induced necrosis in human U937 cells after 24 hrs in presence of menadione; format: functional, cell-based
[4] = Inhibition of death receptor signaling mediated necroptotic cell death in human U937 cells assessed as cell viability after 48 hrs by ATP based viability assay in presence of TNFalpha and zVAD-fmk; conditions: U-937
[5] = test system: Jurkat; test: Effect on apoptosis in human Jurkat cell assessed as cytoplasm condensation by electron microscopy in presence of FasL and CHX; format: functional, cell-based
[6] = test system: Jurkat; test: Effect on ATP level in human Jurkat cells; format: functional, cell-based
[7] = test system: Jurkat; test: Effect on cell cycle in human Jurkat cells deficient in FADD assessed as cells in G1 phase in presence of TNFalpha relative to control; format: functional
[8] = test system: Jurkat; test: Effect on cell cycle in human Jurkat cells deficient in FADD assessed as cells in G2/M phase relative to control; format: functional
[9] = Inhibition of death receptor signaling mediated necroptotic cell death in human Jurkat cells deficient in FADD and expressing RIP kinase domain assessed as cell viability after 48 hrs by FACS in presence of AP1510, zVAD-fmk; format: cell-based
[10] = test system: Jurkat; test: Inhibition of necrosis in human Jurkat cells deficient in FADD assessed as inhibition of organelle swelling by bright field microscopy in presence of TNFalpha; format: functional, cell-based
[11] = Inhibition of death receptor signaling mediated necroptotic cell death in human Jurkat cells deficient in FADD and expressing FKBP12-based dimerization domain assessed as cell viability after 48 hrs by FACS in presence of AP1510, zVAD-fmk
[12] = test system: Jurkat; test: Inhibition of necrosis in human Jurkat cells assessed as early loss of plasma membrane integrity by bright field microscopy in presence of FasL, CHX and zVAD-fmk; format: functional, cell-based
[13] = Inhibition of death receptor signaling mediated apoptosis in human Jurkat cell assessed as inhibition of plasma membrane permeability after 24 hrs by in presence of FasL, CHX and zVAD.fmk; format: cell-based
[14] = test system: Jurkat; test: increase in intracellular ROS level in human Jurkat cells; format: functional, cell-based
[15] = test system: Jurkat; test: Effect on cell cycle in human Jurkat cells assessed as cells in S phase; format: functional, cell-based
[16] = test system: Jurkat; test: Effect on cell cycle in human Jurkat cells assessed as cells in G2/M phase; format: functional, cell-based
[17] = test system: Jurkat; test: Inhibition of necrosis in human Jurkat cells deficient in FADD assessed as inhibition of nuclear condensation by bright field microscopy in presence of TNFalpha; format: functional, cell-based
[18] = Inhibition of death receptor signaling mediated necrotic cell death in mouse 3T3 cells assessed as cell viability after 24 hrs by ATP based viability assay in presence of TNFalpha and zVAD.fmk; conditions: NIH3T3
[19] = Inhibition of death receptor signaling mediated necroptotic cell death in mouse 3T3 cells assessed as decreased levels of PE-conjugated autophagy marker LC3-II after 24 hrs by Western blot method in presence of TNFalpha and zVAD-fmk; format: cell-based; conditions: NIH3T3
[20] = test system: Jurkat; test: Effect on apoptosis in human Jurkat cell assessed as plasma membrane blebbing by electron microscopy in presence of FasL and CHX; format: functional, cell-based
[21] = test system: Jurkat; test: Effect on apoptosis in human Jurkat cell assessed as chromatin marginalization by electron microscopy in presence of FasL and CHX; format: functional, cell-based
[22] = Inhibition of death receptor signaling mediated necroptotic cell death in human Jurkat cells deficient in FADD and expressing RIP kinase assessed as cell viability after 48 hrs by FACS in presence of AP1510; format: cell-based
[23] = Inhibition of death receptor signaling mediated necroptotic cell death in mouse 3T3 cells assessed as decreased levels of PE-conjugated autophagy marker LC3-II after 24 hrs by Western blot method in presence of FasL and zVAD-fmk; format: cell-based; conditions: NIH3T3
[24] = Inhibition of death receptor signaling mediated necroptotic cell death in human Jurkat cells deficient in FADD and expressing RIP kinase assessed as cell viability after 48 hrs by FACS in presence of AP1510, zVAD-fmk; format: cell-based
[25] = Inhibition of death receptor signaling mediated apoptosis in human Jurkat cell assessed as cytoprotection after 30 hrs by in presence of FasL, CHX and zVAD.fmk; format: cell-based
[26] = test system: Jurkat; test: Inhibition of necrosis in human Jurkat cells assessed as nuclear condensation by bright field microscopy in presence of FasL, CHX and zVAD-fmk; format: functional, cell-based
[27] = Inhibition of death receptor signaling mediated necrotic cell death in human Jurkat cell assessed as cell viability after 30 hrs by ATP based viability assay in presence of FasL, CHX, zVAD.fmk
[28] = test system: NIH3T3; test: Effect on morphology of golgi apparatus in mouse 3T3 cells after 24 hrs by anti-giantin immunofluorescence in presence of TNFalpha and zVAD-fmk; format: functional, cell-based
[29] = Inhibition of death receptor signaling mediated necrotic cell death in rat IEC18 cells assessed as cell viability in presence of TNFalpha and zVAD.fmk; format: cell-based
[30] = test system: NIH3T3; test: Inhibition of apoptosis in mouse 3T3 cells assessed as cell viability after 24 hrs by ATP based viability assay in presence of TNFalpha and CHX; format: functional
[31] = test system: Jurkat; test: Effect on cell cycle in human Jurkat cells assessed as cells in G1 phase; format: functional, cell-based
[32] = Inhibition of death receptor signaling mediated necroptotic cell death in human Jurkat cell deficient in FADD assessed as changes in cell size after 24 hrs by forward and side scatter FACS analysis in presence of TNFalpha; format: cell-based
[33] = test system: Jurkat; test: Inhibition of necrosis in human Jurkat cells deficient in FADD assessed as inhibition of early loss of plasma membrane integrity by bright field microscopy in presence of TNFalpha; format: functional, cell-based
[34] = test system: Jurkat; test: Effect on apoptosis in human Jurkat cell assessed as nuclear fragmentation by electron microscopy in presence of FasL and CHX; format: functional, cell-based
[35] = Inhibition of death receptor signaling mediated necroptotic cell death in mouse 3T3 cells assessed as decreased levels of PE-conjugated autophagy marker LC3-II after 24 hrs by Western blot method in presence of rapamycin; format: cell-based; conditions: NIH3T3
[36] = Inhibition of death receptor signaling mediated necroptotic cell death in human Jurkat cell deficient in FADD assessed as cytoprotection after 30 hrs by in presence of TNFalpha; format: cell-based
[37] = test system: Jurkat; test: Effect on cell cycle in human Jurkat cells deficient in FADD assessed as cells in sub-G1 phase in presence of TNFalpha relative to control; format: functional
[38] = test system: Mus musculus; test: Inhibition of necroptosis in icv dosed mouse middle cerebral artery occlusion induced ischemic injury model assessed as reduction of infarct volume; format: functional, organism-based
[39] = Inhibition of death receptor signaling mediated necrotic cell death in SV40 transformed mouse MEF cells assessed as cell viability after 16 hrs by ATP based viability assay in presence of TNFalpha, CHX and zVAD.fmk
[40] = test system: Jurkat; test: Effect on changes in cell size in human Jurkat cells; format: functional, cell-based
[41] = test system: Jurkat; test: Effect on gene expression in human Jurkat cells after 16 hrs by Agilent DNA chip analysis; format: functional, cell-based

Structure (SMILES): CN1C(=O)C(Cc2c[nH]c3ccccc23)NC1=S (stereo unspecified) [NECROSTATIN]
- inhibition [1]: Active
- inhibition [2]: Active
- inhibition [3]: inactive
- inhibition [4]: Active
- Activity [5]: inactive
- Activity [6]: inactive
- Activity [7]: 43.1%
- Activity [8]: 13.5%
- inhibition [9]: Active
- inhibition [10]: Active
- inhibition [11]: Active
- inhibition [12]: Active
- inhibition [13]: Active
- Activity [14]: inactive
- Activity [15]: inactive
- Activity [16]: inactive
- inhibition [17]: Active
- inhibition [18]: Active
- inhibition [19]: Active
- Activity [20]: inactive
- Activity [21]: inactive
- inhibition [22]: Active
- inhibition [23]: Active
- inhibition [24]: Active
- inhibition [25]: inactive
- inhibition [26]: Active
- inhibition [27]: Active
- Activity [28]: inactive
- inhibition [29]: Active
- inhibition [30]: inactive
- Activity [31]: inactive
- inhibition [32]: Active
- inhibition [33]: Active
- Activity [34]: inactive
- inhibition [35]: Active
- inhibition [36]: Active
- Activity [37]: 0.7%
- inhibition [38]: Active
- inhibition [39]: Active
- Activity [40]: inactive
- Activity [41]: inactive
